In BindingDB's records for doi:10.1021/acs.jmedchem.0c00435 (University of Bonn, 2020):

Assays:
[1] = Antagonist activity P2X1 receptor in Apyrase pre-treated human platelets assessed as inhibition of collagen-induced platelet aggregation pre-incubated for 30 mins before collagen stimulation by aggregometry
[2] = Antagonist activity P2X1 receptor in Apyrase pre-treated human platelets assessed as inhibition of TRAP6-induced platelet aggregation pre-incubated for 30 mins before TRAP6 stimulation by aggregometry
[3] = Antagonist activity P2X1 receptor in human platelets assessed as inhibition of ADP-induced platelet aggregation pre-incubated for 30 mins before ADP stimulation by aggregometry

Compound	IC50 [1]	IC50 [2]	IC50 [3]
O=C(Nc1cc(C(F)(F)F)cc(C(F)(F)F)c1)c1cc(Cl)ccc1O [TCMDC-125465]	0.57 µM	3.64 µM	4.73 µM
O=S(=O)(Nc1cc(C(F)(F)F)cc(C(F)(F)F)c1)c1cc(Cl)ccc1O	3.13 µM	> 10 µM	> 20 µM
O=C(Nc1cc(Cl)cc(Cl)c1)c1cc(Cl)ccc1O	3.03 µM	> 10 µM	> 20 µM

The next lines start with the values.

IC50 [1]	IC50 [2]	IC50 [3]	Compound
2.1 µM	5.57 µM	–	O=C(Nc1cc(C(F)(F)F)cc(C(F)(F)F)c1)c1ccccc1 [N-(3,5-Bis(Trifluoromethyl)Phenyl)Benzamide]
–	> 10 µM	> 20 µM	O=C(Nc1cc(F)cc(F)c1)c1cc(Cl)ccc1O
1.14 µM	4.8 µM	5.47 µM	O=C(Nc1cc(C(F)(F)F)cc(C(F)(F)F)c1)c1ccc(Cl)cc1O
